Results published in patent US12594267B2, “Capsid inhibitors for the treatment of HIV” (Gilead Sciences, Inc., priority 2018, dated 2026).
Like-named read-outs stand apart in the source and are kept apart here.

Tests used:
WT HXB2D = assay: Cytopathic antiviral assay in MT-2 cells, wild type HXB2D; assay type: cell-based, HIV-1; conditions: Human immunodeficiency virus 1, MT2, read-out: WT HXB2D EC50, MT-2 cells, mean ± s.d. of three experiments in triplicate
Protocol: (§1) The antiviral activity of the compound of Formula (a) was tested against a panel of known HIV-1 mutants resistant to HIV PIs (ATV and DRV), NRTIs (TFV and FTC), NNRTIs (RPV and EFV) or INSTIs (RAL, EVG and DTG) using a cytopathic antiviral assay in MT-2 cells. The compound of Formula (Ia) was fully active against all tested mutants resistant to PIs (Table 11), NRTIs (Table 12), NNRTIs (Table 13) or INSTIs (Table 14).

PI-resistant viruses = assay: Cytopathic antiviral assay in MT-2 cells, PI-resistant viruses; assay type: cell-based, HIV-1; conditions: Mutant/WT (HXB2D) EC50 ratio, mean ± s.d. of three experiments
Protocol: as §1

INSTI-resistant viruses = assay: Cytopathic antiviral assay in MT-2 cells, INSTI-resistant viruses; assay type: cell-based, HIV-1; conditions: Mutant/WT (HXB2D) EC50 ratio, mean ± s.d. of three experiments
Protocol: as §1

HIV-1 clinical isolates = assay: Antiviral activity against HIV-1 clinical isolates in PHA-stimulated human PBMCs; assay type: cell-based
Protocol: (§2) The antiretroviral activity of the compound of Formula (Ia) was tested against a panel of 22 HIV-1 clinical isolates of HIV-1 and two HIV-2 isolates in freshly isolated, PHA-stimulated human peripheral blood mononuclear cells (PBMCs). The HIV-1 isolates included representative strains from subtypes A, B, C, D, E, F, G, N, O, AE, and AG. Following a 7-day infection, virus production was determined by measuring reverse transcriptase activity in cell-free culture supernatants.

HIV-2 isolates = assay: Antiviral activity against HIV-2 isolates in PHA-stimulated human PBMCs; assay type: cell-based; conditions: Human immunodeficiency virus 2, PBMC, 168 h, 7-day infection, RT activity readout, mean of triplicate
Protocol: as §2

NNRTI-resistant viruses = assay: Cytopathic antiviral assay in MT-2 cells, NNRTI-resistant viruses; assay type: cell-based, HIV-1; conditions: Mutant/WT (HXB2D) EC50 ratio, mean ± s.d. of three experiments
Protocol: as §1

[1] = INSTI-resistance panel (Table 14)

CC(C)CN(C[C@@H](O)[C@H](Cc1ccccc1)NC(=O)O[C@H]1CO[C@H]2OCC[C@H]21)S(=O)(=O)c1ccc(N)cc1 [DRV, darunavir]
EC50 (WT HXB2D; PI-resistance panel (Table 11)): 2.82 ± 0.47 nM
EC50 Fold-Change (PI-resistant viruses; G48V/V82A/L90M): 0.5 ± 0.2
EC50 Fold-Change (PI-resistant viruses; G48V/V82S): 0.3 ± 0.1
EC50 Fold-Change (PI-resistant viruses; I50V): 31.6 ± 22.8
EC50 Fold-Change (PI-resistant viruses; I84V/L90M): 1.9 ± 0.9

Cc1nnc(C(=O)NC(C)(C)c2nc(C(=O)NCc3ccc(F)cc3)c(O)c(=O)n2C)o1 [RAL, raltegravir]
EC50 (WT HXB2D; [1]): 6.41 ± 2.15 nM
EC50 Fold-Change (INSTI-resistant viruses; E92Q/N155H): >15.6
EC50 Fold-Change (INSTI-resistant viruses; E138K/Q148K): >15.6
EC50 Fold-Change (INSTI-resistant viruses; G140S/Q148R): >15.6
EC50 Fold-Change (INSTI-resistant viruses; N155H/Q148R): 13.9 ± 2.2
EC50 Fold-Change (INSTI-resistant viruses; R263K/M50I): 1.6 ± 1.2
EC50 Fold-Change (INSTI-resistant viruses; Y143R): 10.1 ± 1.2

C[C@@H]1CCO[C@H]2Cn3cc(C(=O)NCc4ccc(F)cc4F)c(=O)c(O)c3C(=O)N12 [DTG, dolutegravir]
EC50 (HIV-1 clinical isolates; Human immunodeficiency virus 1, BAL, PBMC, 168 h, read-out: EC50 in human PBMCs, HIV-1 subtype B isolate Ba-L, 7-day infection, RT activity readout, mean of triplicate): 0.4 nM
EC50 (HIV-1 clinical isolates; Human immunodeficiency virus 1, PBMC, 168 h, read-out: EC50 in human PBMCs, HIV-1 CRF01_AE isolate 90TH_CM235, 7-day infection, RT activity readout, mean of triplicate): 1.02 nM
EC50 (HIV-1 clinical isolates; Human immunodeficiency virus 1, PBMC, 168 h, read-out: EC50 in human PBMCs, HIV-1 CRF02_AG isolate 01CM0008BBY, 7-day infection, RT activity readout, mean of triplicate): 1.04 nM
EC50 (HIV-1 clinical isolates; Human immunodeficiency virus 1, PBMC, 168 h, read-out: EC50 in human PBMCs, HIV-1 CRF02_AG isolate 91DJ263, 7-day infection, RT activity readout, mean of triplicate): 0.45 nM
EC50 (HIV-1 clinical isolates; Human immunodeficiency virus 1, PBMC, 168 h, read-out: EC50 in human PBMCs, HIV-1 Group N isolate YBF30, 7-day infection, RT activity readout, mean of triplicate): 0.54 nM
EC50 (HIV-1 clinical isolates; Human immunodeficiency virus 1, PBMC, 168 h, read-out: EC50 in human PBMCs, HIV-1 Group O isolate BCF01, 7-day infection, RT activity readout, mean of triplicate): 0.64 nM
EC50 (HIV-1 clinical isolates; Human immunodeficiency virus 1, PBMC, 168 h, read-out: EC50 in human PBMCs, HIV-1 subtype A isolate 92UG031, 7-day infection, RT activity readout, mean of triplicate): 0.63 nM
EC50 (HIV-1 clinical isolates; Human immunodeficiency virus 1, PBMC, 168 h, read-out: EC50 in human PBMCs, HIV-1 subtype A isolate 92UG037, 7-day infection, RT activity readout, mean of triplicate): 0.47 nM
EC50 (HIV-1 clinical isolates; Human immunodeficiency virus 1, PBMC, 168 h, read-out: EC50 in human PBMCs, HIV-1 subtype B isolate 89BZ_167, 7-day infection, RT activity readout, mean of triplicate): 1.18 nM
EC50 (HIV-1 clinical isolates; Human immunodeficiency virus 1, PBMC, 168 h, read-out: EC50 in human PBMCs, HIV-1 subtype B isolate 90US_873, 7-day infection, RT activity readout, mean of triplicate): 0.82 nM
EC50 (HIV-1 clinical isolates; Human immunodeficiency virus 1, PBMC, 168 h, read-out: EC50 in human PBMCs, HIV-1 subtype B isolate 91US001, 7-day infection, RT activity readout, mean of triplicate): 0.53 nM
EC50 (HIV-1 clinical isolates; Human immunodeficiency virus 1, PBMC, 168 h, read-out: EC50 in human PBMCs, HIV-1 subtype B isolate 91US004, 7-day infection, RT activity readout, mean of triplicate): 0.4 nM
EC50 (HIV-1 clinical isolates; Human immunodeficiency virus 1, PBMC, 168 h, read-out: EC50 in human PBMCs, HIV-1 subtype B isolate 96TH_NP1538, 7-day infection, RT activity readout, mean of triplicate): 0.4 nM
EC50 (HIV-1 clinical isolates; Human immunodeficiency virus 1, PBMC, 168 h, read-out: EC50 in human PBMCs, HIV-1 subtype B isolate JR-CSF, 7-day infection, RT activity readout, mean of triplicate): 0.41 nM
EC50 (HIV-1 clinical isolates; Human immunodeficiency virus 1, PBMC, 168 h, read-out: EC50 in human PBMCs, HIV-1 subtype C isolate 92BR025, 7-day infection, RT activity readout, mean of triplicate): 0.91 nM
EC50 (HIV-1 clinical isolates; Human immunodeficiency virus 1, PBMC, 168 h, read-out: EC50 in human PBMCs, HIV-1 subtype C isolate 98US_MSC5016, 7-day infection, RT activity readout, mean of triplicate): 0.77 nM
EC50 (HIV-1 clinical isolates; Human immunodeficiency virus 1, PBMC, 168 h, read-out: EC50 in human PBMCs, HIV-1 subtype D isolate 92UG001, 7-day infection, RT activity readout, mean of triplicate): 1.09 nM
EC50 (HIV-1 clinical isolates; Human immunodeficiency virus 1, PBMC, 168 h, read-out: EC50 in human PBMCs, HIV-1 subtype D isolate 98UG_57128, 7-day infection, RT activity readout, mean of triplicate): 0.7 nM
EC50 (HIV-1 clinical isolates; Human immunodeficiency virus 1, PBMC, 168 h, read-out: EC50 in human PBMCs, HIV-1 subtype E isolate CMU02, 7-day infection, RT activity readout, mean of triplicate): 0.81 nM
EC50 (HIV-1 clinical isolates; Human immunodeficiency virus 1, PBMC, 168 h, read-out: EC50 in human PBMCs, HIV-1 subtype E isolate CMU08, 7-day infection, RT activity readout, mean of triplicate): 0.96 nM
EC50 (HIV-1 clinical isolates; Human immunodeficiency virus 1, PBMC, 168 h, read-out: EC50 in human PBMCs, HIV-1 subtype F isolate 93BR020, 7-day infection, RT activity readout, mean of triplicate): 0.38 nM
EC50 (HIV-1 clinical isolates; Human immunodeficiency virus 1, PBMC, 168 h, read-out: EC50 in human PBMCs, HIV-1 subtype G isolate JV1083, 7-day infection, RT activity readout, mean of triplicate): 0.93 nM
EC50 (HIV-1 clinical isolates; Human immunodeficiency virus 1, PBMC, read-out: HIV-1 EC50 Mean ± s.d., mean over the 22 HIV-1 clinical isolates, human PBMCs): 0.7 ± 0.26 nM
EC50 (HIV-1 clinical isolates; Human immunodeficiency virus 1, PBMC, read-out: HIV-1 EC50 Median, median over the 22 HIV-1 clinical isolates, human PBMCs): 0.67 nM
EC50 (HIV-1 clinical isolates; Human immunodeficiency virus 1, PBMC, read-out: HIV-1 EC50 Range, range over the 22 HIV-1 clinical isolates, human PBMCs): 0.38 to 1.18 nM
EC50 (HIV-2 isolates; HIV-2 isolate CBL-20): 0.36 nM
EC50 (HIV-2 isolates; HIV-2 isolate CDC310319): 1.81 nM
EC50 (WT HXB2D; [1]): 2.24 ± 0.46 nM
EC50 Fold-Change (INSTI-resistant viruses; E92Q/N155H): 3.0 ± 1.1
EC50 Fold-Change (INSTI-resistant viruses; E138K/Q148K): 7.3 ± 4.1
EC50 Fold-Change (INSTI-resistant viruses; G140S/Q148R): 6.9 ± 3.1
EC50 Fold-Change (INSTI-resistant viruses; N155H/Q148R): 1.5 ± 0.6
EC50 Fold-Change (INSTI-resistant viruses; R263K/M50I): 2.8 ± 2.1
EC50 Fold-Change (INSTI-resistant viruses; Y143R): 0.8 ± 0.3

Cc1cc(/C=C/C#N)cc(C)c1Nc1ccnc(Nc2ccc(C#N)cc2)n1 [RPV, rilpivirine]
EC50 (WT HXB2D; NNRTI-resistance panel (Table 13)): 0.93 ± 0.23 nM
EC50 Fold-Change (NNRTI-resistant viruses; K103N): 0.7 ± 0.3
EC50 Fold-Change (NNRTI-resistant viruses; K103N/Y181C): 3.2 ± 1.4
EC50 Fold-Change (NNRTI-resistant viruses; L100I/K103N): 7.8 ± 2.6
EC50 Fold-Change (NNRTI-resistant viruses; Y181C): 5.9 ± 4.3
EC50 Fold-Change (NNRTI-resistant viruses; Y188L): 6.9 ± 1.3
